From patent US8575158B2, “1-phenyl-substituted heterocyclyl derivatives and their use as prostaglandin D2 receptor modulators” (Actelion Pharmaceuticals Ltd., priority 2010, dated 2013)

Target: T1, hCRTH2 receptor (Homo sapiens, UniProt Q9Y5Y4)
T1 construct: expressed in transfected cells; host or cells: HEK293
T1 sequence (Q9Y5Y4 1-395): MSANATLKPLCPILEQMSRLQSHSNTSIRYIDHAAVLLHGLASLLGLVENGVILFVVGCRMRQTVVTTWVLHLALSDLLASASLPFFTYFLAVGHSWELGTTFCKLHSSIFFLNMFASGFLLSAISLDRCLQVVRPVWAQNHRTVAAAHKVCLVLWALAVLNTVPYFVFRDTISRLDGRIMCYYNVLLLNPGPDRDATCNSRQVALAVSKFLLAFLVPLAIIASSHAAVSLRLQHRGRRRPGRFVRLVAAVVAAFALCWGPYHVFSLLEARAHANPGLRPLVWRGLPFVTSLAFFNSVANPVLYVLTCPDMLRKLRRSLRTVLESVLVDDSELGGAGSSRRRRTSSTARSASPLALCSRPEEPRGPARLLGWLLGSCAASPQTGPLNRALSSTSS
Assay: Radioligand displacement assay (3H-PGD2) on hCRTH2 receptor membranes
Type: binding
Settings: antagonistic activity

[1] = 3H-PGD2 displacement on HEK293-hCRTH2 membrane fragments
[2] = 3H-PGD2 radioligand displacement, HEK293-hCRTH2 membranes

SMILES | IC50 [1] [nM] | IC50 [2] [nM]
O=C(O)COc1ccc(F)cc1C1c2cc(Br)ccc2CCN1C(=O)OCc1ccccc1 (racemic) [Example 5, (±)-7-Bromo-1-(2-carboxymethoxy-5-fluoro-phenyl)-3,4-dihydro-1H-isoquinoline-2-carboxylic acid benzyl ester] | 81.2 | –
COCCOC(=O)N1CCc2ccccc2C1c1cc(Cl)ccc1OCC(=O)O (racemic) [Example 267] | 21.2 | –
O=C(O)COc1ccc(Cl)cc1C1c2ccccc2CN1C(=O)OCc1ccccc1 (centres unmarked) [Example 231, 1-(2-Carboxymethoxy-5-chloro-phenyl)-1,3-dihydro-isoindole-2-carboxylic acid benzyl ester] | 2.65 | –
COc1ccc2onc(CC(=O)N3Cc4ccccc4C3c3cc(Cl)ccc3OCC(=O)O)c2c1 (racemic) [Example 518] | – | 20.1
O=C(O)COc1ccc(Cl)cc1C1c2ccccc2CCN1C(=O)CCn1ccc2cccnc21 (racemic) [Example 369] | – | 195
Cc1cnc(COC(=O)N2CCc3ccccc3[C@H]2c2cc(Cl)ccc2OCC(=O)O)s1 [Example 275, (S)-1-(2-Carboxymethoxy-5-chloro-phenyl)-3,4-dihydro-1H-isoquinoline-2-carboxylic acid 5-methyl-thiazol-2-ylmethyl ester] | 5.01 | –
Cc1ccc(OCC(=O)N2CCc3ccccc3C2c2cc(Cl)ccc2OCC(=O)O)cc1 (racemic) [Example 414] | – | 126
CC(C)[C@@H]1C[C@H]1C(=O)N1CCc2ccccc2[C@H]1c1cc(Cl)ccc1OCC(=O)O (single isomer, unassigned) [Example 465] | – | 53.5
O=C(O)COc1ccc(Cl)cc1[C@@H]1c2ccc(F)cc2CCN1C(=O)CCn1ncc2cccc(Cl)c21 [Example 400] | – | 678
O=C(O)COc1ccc(F)cc1C1c2ccccc2CCN1C(=O)CCc1ccccc1Cl (racemic) [Example 131, (±)-(2-{2-[3-(2-Chloro-phenyl)-propionyl]-1,2,3,4-tetrahydro-isoquinolin-1-yl}-4-fluoro-phenoxy)-acetic acid] | 48 | –
Cc1ccc(OCCC(=O)N2CCc3ccccc3C2c2cc(Cl)ccc2OCC(=O)O)cc1 (racemic) [Example 88, (±)-{4-Chloro-2-[2-(3-p-tolyloxy-propionyl)-1,2,3,4-tetrahydro-isoquinolin-1-yl]-phenoxy}-acetic acid] | 148 | –
O=C(O)COc1ccc(Cl)cc1[C@@H]1c2ccccc2CCN1C(=O)OCc1ccncn1 [Example 283, (S)-1-(2-Carboxymethoxy-5-chloro-phenyl)-3,4-dihydro-1H-isoquinoline-2-carboxylic acid pyrimidin-4-ylmethyl ester] | 7.56 | –
O=C(O)COc1ccc(Cl)cc1[C@@H]1c2ccc(F)c(F)c2CCN1C(=O)OCc1ccncn1 [Example 309, (S)-1-(2-Carboxymethoxy-5-chloro-phenyl)-5,6-difluoro-3,4-dihydro-1H-isoquinoline-2-carboxylic acid pyrimidin-4-ylmethyl ester] | – | 4.77
O=C(O)COc1ccc(Cl)cc1C1c2ccccc2CCN1C(=O)OCc1cccc(Cl)c1Cl (racemic) [Example 242] | 1.07 | –
O=C(O)COc1ccc(Cl)cc1C1c2ccccc2CCN1C(=O)COc1cccc(Cl)c1 (racemic) [Example 413] | – | 70.5
O=C(O)COc1ccc(Br)cc1C1c2ccccc2CCN1C(=O)OCc1ccccc1 (racemic) [Example 4, (±)-1-(5-Bromo-2-carboxymethoxy-phenyl)-3,4-dihydro-1H-isoquinoline-2-carboxylic acid benzyl ester] | 10.5 | –
O=C(O)COc1ccc(Cl)cc1C1c2ccccc2CN1C(=O)CCn1ncc2cc(F)ccc21 (single isomer, unassigned) [Example 543, (4-Chloro-2-{2-[3-(5-fluoro-indazol-1-yl)-propionyl]-2,3-dihydro-1H-isoindol-1-yl}-phenoxy)-acetic acid] | – | 353
O=C(O)COc1ccc(F)cc1C1c2ccccc2CCN1C(=O)Cc1ccc2ccccc2c1 (racemic) [Example 135, (±)-{4-Fluoro-2-[2-(2-naphthalen-2-yl-acetyl)-1,2,3,4-tetrahydro-isoquinolin-1-yl]-phenoxy}-acetic acid] | 42.2 | –
Cc1nn(CCC(=O)N2Cc3ccccc3C2c2cc(Cl)ccc2OCC(=O)O)c2cccc(F)c12 (single isomer, unassigned) [Example 528, (4-Chloro-2-{2-[3-(4-fluoro-3-methyl-indazol-1-yl)-propionyl]-2,3-dihydro-1H-isoindol-1-yl}-phenoxy)-acetic acid] | – | 33.2
O=C(O)COc1ccc(-c2ccc(F)cc2)cc1C1c2ccccc2CCN1C(=O)OCc1ccccc1 (racemic) [Example 189, (±)-1-(4-Carboxymethoxy-4′-fluoro-biphenyl-3-yl)-3,4-dihydro-1H-isoquinoline-2-carboxylic acid benzyl ester] | 23.3 | –
O=C(O)COc1ccc(Cl)cc1C1c2ccccc2CN1C(=O)NCc1ccccc1F (racemic) [Example 552] | – | 19.6

SMILES | IC50 [1] [nM] | IC50 [2] [nM]
COc1cc2c(ccn2CCC(=O)N2CCc3ccccc3C2c2cc(Cl)ccc2OCC(=O)O)cn1 (racemic) [Example 373] | – | 433
O=C(O)COc1ccc(Cl)cc1C1c2ccccc2CCN1C(=O)OCc1c(Cl)cccc1Cl (racemic) [Example 243] | 6.48 | –
Cn1nccc1COC(=O)N1CCc2ccccc2[C@H]1c1cc(Cl)ccc1OCC(=O)O [Example 287, (S)-1-(2-Carboxymethoxy-5-chloro-phenyl)-3,4-dihydro-1H-isoquinoline-2-carboxylic acid 2-methyl-2H-pyrazol-3-ylmethyl ester] | – | 0.2
O=C(O)COc1ccc(Cl)cc1C1c2ccccc2CN1C(=O)CCn1ncc2ccc(F)cc21 (single isomer, unassigned) [Example 546, (4-Chloro-2-{2-[3-(6-fluoro-indazol-1-yl)-propionyl]-2,3-dihydro-1H-isoindol-1-yl}-phenoxy)-acetic acid] | – | 210
O=C(O)COc1ccc(F)cc1C1c2ccccc2CCN1C(=O)CC1Cc2ccccc2C1 (racemic) [Example 140, (±)-{4-Fluoro-2-[2-(2-indan-2-yl-acetyl)-1,2,3,4-tetrahydro-isoquinolin-1-yl]-phenoxy}-acetic acid] | 36.4 | –
O=C(O)COc1ccc(Cl)cc1C1c2ccccc2CN1C(=O)NCc1ccccc1Cl (racemic) [Example 557] | – | 13.7
O=C(O)COc1ccc(Cl)cc1C1c2ccccc2CCN1C(=O)CCN1CCc2ccccc21 (racemic) [Example 441] | – | 12.7
O=C(O)COc1ccc(F)cc1C1c2ccccc2CCN1C(=O)COc1ccccc1Cl (racemic) [Example 138, (±)-(2-{2-[2-(2-Chloro-phenoxy)-acetyl]-1,2,3,4-tetrahydro-isoquinolin-1-yl}-4-fluoro-phenoxy)-acetic acid] | 101 | –
Cc1ccccc1[C@@H]1C[C@H]1C(=O)N1CCc2ccccc2[C@H]1c1cc(Cl)ccc1OCC(=O)O [Example 560, {4-Chloro-2-[(S)-2-((1R,2R)-2-o-tolyl-cyclopropanecarbonyl)-1,2,3,4-tetrahydro-isoquinolin-1-yl]-phenoxy}-acetic acid] | – | 3.27
O=C(O)COc1ccc(Cl)cc1C1c2ccccc2CCN1C(=O)CCn1ccc2ncc(Cl)nc21 (racemic) [Example 404] | – | 42.6
O=C(O)COc1c(F)cc(F)cc1C1c2ccccc2CCN1C(=O)OCc1ccccc1 (racemic) [Example 33, (±)-1-(2-Carboxymethoxy-3,5-difluoro-phenyl)-3,4-dihydro-1H-isoquinoline-2-carboxylic acid benzyl ester] | 196 | –
N#Cc1ccc(OCC(=O)O)c(C2c3ccccc3CCN2C(=O)[C@@H]2C[C@H]2c2ccccc2)c1 (mixture of isomers) [Example 218, (±)-{4-Cyano-2-[2-(trans-2-phenyl-cyclopropanecarbonyl)-1,2,3,4-tetrahydro-isoquinolin-1-yl]-phenoxy}-acetic acid] | 13.4 | –
CS(=O)(=O)c1ccc(CCC(=O)N2CCc3ccccc3C2c2cc(F)ccc2OCC(=O)O)cc1 (racemic) [Example 145, (±)-(4-Fluoro-2-{2-[3-(4-methanesulfonyl-phenyl)-propionyl]-1,2,3,4-tetrahydro-isoquinolin-1-yl}-phenoxy)-acetic acid] | 983 | –
O=C(O)COc1ccc(Cl)cc1C1c2ccccc2CCN1C(=O)COc1ccc(F)cc1 (racemic) [Example 407] | – | 34.9
Cc1cccc(COC(=O)N2CCc3ccccc3C2c2cc(Cl)ccc2OCC(=O)O)c1C (racemic) [Example 246] | 3.43 | –
O=C(O)COc1ccc(F)cc1C1c2cccc(F)c2CCN1C(=O)OCc1ccccc1 (racemic) [Example 34, (±)-1-(2-Carboxymethoxy-5-fluoro-phenyl)-5-fluoro-3,4-dihydro-1H-isoquinoline-2-carboxylic acid benzyl ester] | 7.22 | –
O=C(O)COc1ccc(F)cc1C1c2ccccc2CCN1C(=O)CCN1CCc2ccccc21 (racemic) [Example 146, (±)-{2-[2-(3-2,3-Dihydro-indol-1-yl-propionyl)-1,2,3,4-tetrahydro-isoquinolin-1-yl]-4-fluoro-phenoxy}-acetic acid] | 61.3 | –
O=C(O)COc1ccc(Cl)cc1C1c2ccccc2CCN1C(=O)CCn1ccc2cccc(Cl)c21 (racemic) [Example 380] | – | 24.3
Cn1cc(CCC(=O)N2Cc3ccccc3C2c2cc(Cl)ccc2OCC(=O)O)c2ccccc21 (racemic) [Example 513] | – | 25.9
Cc1ccccc1[C@@H]1C[C@H]1C(=O)N1CCc2ccccc2C1c1cc(Cl)ccc1OCC(=O)O (mixture of isomers) [Example 422] | – | 5.58
